Reference: patent publication US7247617B2, “Sixteen-member macrolide antiinfective agents” (Kosan Biosciences Incorporated, priority 2004, dated 2007)

Legend:
E. faecalis = assay: Biological activity against bacterial strains: E. faecalis; assay type: cell-based, Enterococcus faecalis; details: strain ATCC51575
S. aureus = assay: Biological activity against bacterial strains: S. aureus; assay type: cell-based, Staphylococcus aureus; design: unit not given here; details: for Biological Activity, S. aureus ATCC6538p: strain ATCC6538p; for Biological Activity, S. aureus ATCC14154*: strain ATCC14154, macrolide resistant strain; for Biological Activity, S. aureus ATCC29213: strain ATCC29213; for Biological Activity, S. aureus ATCC33591*: strain ATCC33591, macrolide resistant strain; for Biological Activity, S. aureus ATCCBAA-39*: strain ATCCBAA-39, macrolide resistant strain; for Biological Activity, S. aureus ATCCBAA-44*: strain ATCCBAA-44, macrolide resistant strain
S. epidermidis = assay: Biological activity against bacterial strains: S. epidermidis; assay type: cell-based, Staphylococcus epidermidis; details: strain ATCC12228
S. pneumoniae = assay: Biological activity against bacterial strains: S. pneumoniae; assay type: cell-based, Streptococcus pneumoniae; design: Biological Activity, S. pneumoniae ATCC6301 / Biological Activity, S. pneumoniae ATCC700671 / Biological Activity, S. pneumoniae ATCC700676* / Biological Activity, S. pneumoniae ATCC700677* / Biological Activity, S. pneumoniae ATCC700905* / Biological Activity, S. pneumoniae ATCC700906* / Biological Activity, S. pneumoniae ATCC49619: unit not given here; details: for Biological Activity, S. pneumoniae ATCC6301: strain ATCC6301; for Biological Activity, S. pneumoniae ATCC49619: strain ATCC49619; for Biological Activity, S. pneumoniae ATCC700671: strain ATCC700671; for Biological Activity, S. pneumoniae ATCC700676*: strain ATCC700676, macrolide resistant strain; for Biological Activity, S. pneumoniae ATCC700677*: strain ATCC700677, macrolide resistant strain; for Biological Activity, S. pneumoniae ATCC700905*: strain ATCC700905, macrolide resistant strain; for Biological Activity, S. pneumoniae ATCC700906*: strain ATCC700906, macrolide resistant strain

SMILES | Biological Activity, E. faecalis ATCC51575 (E. faecalis) | Biological Activity, S. aureus ATCC6538p (S. aureus) | Biological Activity, S. aureus ATCC14154* (S. aureus) | Biological Activity, S. aureus ATCC29213 (S. aureus) | Biological Activity, S. aureus ATCC33591* (S. aureus) | Biological Activity, S. aureus ATCCBAA-39* (S. aureus) | Biological Activity, S. aureus ATCCBAA-44* (S. aureus) | Biological Activity, S. epidermidis ATCC12228 (S. epidermidis) | Biological Activity, S. pneumoniae ATCC6301 (S. pneumoniae) | Biological Activity, S. pneumoniae ATCC49619 (S. pneumoniae) | Biological Activity, S. pneumoniae ATCC700671 (S. pneumoniae) | Biological Activity, S. pneumoniae ATCC700676* (S. pneumoniae) | Biological Activity, S. pneumoniae ATCC700677* (S. pneumoniae) | Biological Activity, S. pneumoniae ATCC700905* (S. pneumoniae) | Biological Activity, S. pneumoniae ATCC700906* (S. pneumoniae)
CCC1OC(=O)CC(O)C(C)C(OC2OC(C)C(O)C(N(C)C)C2O)C(CC=O)CC(C)C(=NOCCCOc2ccc3ncccc3c2)C=CC(C)=CC1COC1OC(C)C(O)C(OC)C1OC (single isomer, unassigned) [Compound BB] | >12.5 | 0.2 | 0.78 | 0.39 | >12.5 | >12.5 | >12.5 | 0.39 | 0.025 | 0.049 | 0.049 | 0.049 | 0.025 | 0.025 | >12.5
CCC1OC(=O)CC(O)C(C)C(OC2OC(C)C(O)C(N(C)C)C2O)C(CCN2CC(C)CC(C)C2)CC(C)C(=NOCCCCOc2ccc3ncccc3c2)C=CC(C)=CC1COC1OC(C)C(O)C(OC)C1OC (single isomer, unassigned) [Compound M] | >12.5 | 0.78 | 1.56 | 1.56 | >12.5 | >12.5 | >12.5 | 1.56 | 0.01 | 0.01 | 0.01 | 1.56 | 6.25 | 1.56 | >12.5
CCC1OC(=O)CC(O)C(C)C(OC2OC(C)C(O)C(N(C)C)C2O)C(CC=O)CC(C)C(=NOCCCOc2ccc3ncccc3c2)C=CC(C)=CC1COC1OC(C)C(O)C(OC)C1OC (single isomer, unassigned) [Compound AA] | >12.5 | 0.39 | 0.78 | 0.78 | >12.5 | >12.5 | >12.5 | 0.78 | 0.025 | 6.25 | >12.5 | 0.049 | 6.25 | 6.25 | >12.5
CCC1OC(=O)CC(O)C(C)C(OC2OC(C)C(O)C(N(C)C)C2O)C(CC=O)CC(C)C(=NOCC(=O)N2CCN(c3ccccc3)CC2)C=CC(C)=CC1CO (stereo not drawn) [Compound C] | >12.5 | 0.78 | 1.56 | 1.56 | >12.5 | >12.5 | >12.5 | 0.20 | 0.025 | 0.01 | 0.025 | 0.39 | 6.25 | 0.20 | >12.5
CCC1OC(=O)CC(O)C(C)C(OC2OC(C)C(O)C(N(C)C)C2O)C(CCN2CC(C)CC(C)C2)CC(C)C(=NOCCCCOc2ccc3ncccc3c2)C=CC(C)=CC1COC1OC(C)C(O)C(OC)C1OC (single isomer, unassigned) [Compound N] | >12.5 | 0.78 | 1.56 | 3.12 | >12.5 | >12.5 | >12.5 | 3.12 | 0.025 | 0.098 | 0.049 | 1.56 | 6.25 | 0.78 | >12.5
CCC1OC(=O)CC(O)C(C)C(OC2OC(C)C(O)C(N(C)C)C2O)C(CC=O)CC(C)C(=NOCC=Cc2ccc3nccnc3c2)C=CC(C)=CC1CO (stereo not drawn) [Compound H] | >12.5 | 0.20 | 0.39 | 0.39 | >12.5 | >12.5 | >12.5 | 0.20 | 0.025 | 0.025 | 0.049 | 0.049 | >12.5 | 0.049 | >12.5
CCC1OC(=O)CC(O)C(C)C(OC2OC(C)C(O)C(N(C)C)C2O)C(CCN2CC(C)CC(C)C2)CC(C)C(=NOCCCCOc2ccc3ncccc3c2)C=CC(C)=CC1CO (single isomer, unassigned) [Compound U] | >12.5 | >12.5 | >12.5 | >12.5 | >12.5 | >12.5 | >12.5 | >12.5 | 6.25 | 12.5 | 12.5 | >12.5 | >12.5 | 12.5 | >12.5
CO[C@@H]1[C@@H](OC2OC(C)C(O)C(N(C)C)C2O)[C@@H](CC=O)C[C@@H](C)C(=N/OCCCOc2ccc3ncccc3c2)/C=C/C=C/C[C@@H](C)OC(=O)C[C@H]1O (stereo partly drawn) [Compound HH] | >12.5 | 0.2 | 0.78 | 3.12 | >12.5 | >12.5 | >12.5 | 0.78 | 0.025 | 0.025 | 0.025 | 0.025 | 3.12 | 0.025 | >12.5
